Data: ChEMBL document CHEMBL1201862, “PubChem BioAssay data set” (2004)
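How tested: cells in 96-well plates exposed to compound for 48 hours at five concentrations. The concentration for 50% growth inhibition is given as GI50.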 Calls of active or inactive are those of the source. Rule as the data show it: active = GI50 up to about 1.1 µM and inactive = higher.

Legend:
Test in all cases: NCI-60 cell line screen, 48 h
M19-MEL = tested on: M19-MEL
DMS-114 = tested on: DMS-114
RXF 631 = tested on: RXF 631
LXFL 529 = tested on: LXFL 529
DMS-273 = tested on: DMS-273
HOP-18 = tested on: HOP-18
SNB-78 = tested on: SNB-78
KM-20L2 = tested on: KM-20L2
XF498 = tested on: XF498

Measured: GI50

O=c1c2cc(-c3ccccc3)sc2nc2sc(-c3ccccc3)nn12
inactive: M19-MEL > 100 µM | DMS-114 > 100 µM | RXF 631 > 100 µM | LXFL 529 > 100 µM | DMS-273 > 100 µM | HOP-18 > 100 µM | SNB-78 > 100 µM | KM-20L2 > 100 µM | XF498 > 100 µM

Cc1ccc2[nH]c(=O)c(C(C#N)c3ccccc3)nc2c1 (stereo not given)
inactive: RXF 631 44.1 µM | LXFL 529 32.7 µM | DMS-273 44.5 µM | HOP-18 24.7 µM | SNB-78 28.1 µM | KM-20L2 37.2 µM

Cc1ccccc1N1C(=O)/C(=C/c2ccc(N(CCC#N)CCC#N)cc2)N=C1c1cc([N+](=O)[O-])ccc1Cl
inactive: DMS-114 > 100 µM | RXF 631 > 100 µM | LXFL 529 96.8 µM | DMS-273 78.9 µM | HOP-18 > 100 µM | SNB-78 > 100 µM | KM-20L2 > 100 µM

Cc1ccc(NC(=O)CC(=O)n2nc(C)c(/N=N/c3ccccc3C(=O)O)c2C)cc1
inactive: M19-MEL > 100 µM | DMS-114 > 100 µM | RXF 631 > 100 µM | LXFL 529 > 100 µM | DMS-273 > 100 µM | SNB-78 > 100 µM | KM-20L2 > 100 µM | XF498 > 100 µM

CC(=O)c1cccc(NC(=O)C(=O)C(C2OC(=O)c3ccccc32)[N+](=O)[O-])c1 (stereo not given)
inactive: M19-MEL > 100 µM | DMS-114 > 100 µM | RXF 631 > 100 µM | LXFL 529 > 100 µM | SNB-78 > 100 µM | KM-20L2 > 100 µM | XF498 > 100 µM

COc1cc(/C=N/N=C(\N)NO)c([N+](=O)[O-])cc1OC
inactive: M19-MEL 31.9 µM | DMS-114 6.75 µM | RXF 631 26.7 µM | LXFL 529 27 µM | DMS-273 25.9 µM | HOP-18 21 µM | SNB-78 76.2 µM | KM-20L2 30.1 µM

Cc1[nH]c2ccccc2c1C1Cc2ccccc2N1C(=O)/C=C/C(=O)O (stereo not given)
inactive: M19-MEL > 100 µM | DMS-114 > 100 µM | RXF 631 18.4 µM | LXFL 529 > 100 µM | DMS-273 > 100 µM | SNB-78 > 100 µM | KM-20L2 > 100 µM | XF498 32.4 µM

COC(=O)C1(C(=O)OC)CC2c3c(c4ccccc4n3C)CC(C1=O)N2Cc1ccccc1 (stereo not given)
inactive: M19-MEL > 100 µM | DMS-114 > 100 µM | RXF 631 > 100 µM | LXFL 529 > 100 µM | DMS-273 > 100 µM | SNB-78 > 100 µM | KM-20L2 > 100 µM | XF498 > 100 µM

O=C(CSc1nnc(-c2ccc(/N=C\c3ccc(Cl)cc3)cc2)o1)Nc1cccc(Cl)c1
inactive: M19-MEL > 100 µM | DMS-114 > 100 µM | LXFL 529 > 100 µM | DMS-273 > 100 µM | HOP-18 > 100 µM | SNB-78 > 100 µM | KM-20L2 > 100 µM | XF498 > 100 µM

S=C(Nc1ccccc1)N(/N=C/C=C/c1ccccc1)c1nnc(-c2ccccc2)c(-c2ccccc2)n1
inactive: M19-MEL 64.9 µM | DMS-114 26.4 µM | RXF 631 80.7 µM | DMS-273 45.5 µM | SNB-78 > 100 µM | KM-20L2 > 100 µM | XF498 61 µM

CCN(CC)CCCC(C)NC(=O)c1ccc2c(c1)C(=O)c1ccccc1C2=O (stereo not given)
inactive: M19-MEL 16.7 µM | DMS-114 11.4 µM | RXF 631 24.1 µM | LXFL 529 24.7 µM | DMS-273 21.9 µM | HOP-18 > 85.5 µM | SNB-78 22.9 µM | KM-20L2 18.3 µM | XF498 16.1 µM

N#Cc1c(N)oc2cc3c(C#N)c(N)oc3cc12
inactive: M19-MEL > 100 µM | DMS-114 > 100 µM | RXF 631 > 100 µM | LXFL 529 > 100 µM | DMS-273 > 100 µM | HOP-18 > 100 µM | KM-20L2 > 100 µM

O=C1C2C3C=C4c5ccccc5N(c5ccccc5)C4(C2C(=O)N1c1ccc([N+](=O)[O-])cc1)[C@H]1C(=O)N(c2ccc([N+](=O)[O-])cc2)C(=O)[C@@H]31 (stereo not given in full)
inactive: M19-MEL > 100 µM | DMS-114 > 100 µM | DMS-273 > 100 µM | HOP-18 > 100 µM | SNB-78 > 100 µM | KM-20L2 > 100 µM

CCCCCCCCC(C)CCCCCCCCC(=O)OCC(COP(=O)([O-])OCC[N+](C)(C)C)OC(=O)CCCCCCCCC(C)CCCCCCCC (stereo not given)
inactive: M19-MEL > 100 µM | DMS-114 > 100 µM | RXF 631 > 100 µM | LXFL 529 > 100 µM | DMS-273 > 100 µM | HOP-18 > 100 µM | SNB-78 > 100 µM | KM-20L2 > 100 µM

OCC(O)C(O)C(O)C1SC(c2ccccc2)=NN1c1ccccc1 (stereo not given)
inactive: M19-MEL > 100 µM | DMS-114 > 84.7 µM | RXF 631 49.3 µM | LXFL 529 > 95.5 µM | DMS-273 > 76.6 µM | HOP-18 51.8 µM | SNB-78 44.4 µM | KM-20L2 > 100 µM | XF498 30.1 µM

OC1c2ccccc2C2C(O)c3ccccc3C12 (stereo not given)
inactive: M19-MEL > 100 µM | DMS-114 > 100 µM | RXF 631 > 100 µM | LXFL 529 > 100 µM | DMS-273 > 100 µM | HOP-18 > 100 µM | KM-20L2 > 100 µM

O=C(O)C(=O)/C=C\c1ccc(Cl)cc1
inactive: M19-MEL > 100 µM | DMS-114 84.1 µM | LXFL 529 > 100 µM | DMS-273 > 100 µM | HOP-18 > 100 µM | SNB-78 > 100 µM | KM-20L2 > 100 µM | XF498 > 100 µM
